Experimental data from patent publication US20100221304A1, “Bionanocomposite Materials and Methods For Producing and Using the Same” (The Regents of the University of Colorado, a body corporate, priority 2009, published 2010).

Experiments:
[1] = test system: SMC; test: SMC migration, in-growth and contraction in collagen-chitosan scaffolds; type: cell-based
Description: In addition, collagen-chitosan scaffolds have been developed as a structural support for the formation of a vascular media equivalent. In particular, the effects of cross-linking and PDGF-BB (with or without heparin or serum) on biomechanical properties, SMC migration, SMC contraction, and wound healing have been evaluated (FIG. 12). […] For example, it enhanced the strength and modulus while inhibited SMC in-growth and contraction. With a low cross-linking condition, the molecule effects of PDGF-BB, a SMC attractant, were studied with or without serum or heparin.

[2] = test system: smooth muscle cell (SMC); test: SMC contraction and invasion in genipin-crosslinked collagen-chitosan-elastin (CCE) gel constructs; type: cell-based
Description: The vascular media, a layer of the blood vessel wall containing smooth muscle cell (SMC), is often the target functional tissue in the construction of biomimetic vascular grafts. It has a major contribution to mechanical properties and biological functions of vessels including contraction and healing. The present inventors have studied the effects of crosslinking and biomolecule conditions in the development of mechanically strong and stable, biologically functional constructs for vascular media equivalents. To this end, genipin was used to crosslink collagen-chitosan-elastin (CCE) constructs, and the effects of genipin concentration on the mechanical properties and SMC activity of CCE gel constructs were examined.
To enhance biological activities of cells on the genipin-treated CCE constructs, soluble molecule factors were incorporated with structural constructs and their effects on SMC activities were evaluated. These conditions include heparin, platelet-derived […] growth factor (PDGF), high-concentrated fetal bovine serum (h-FBS), mixture of heparin and PDGF and mixture of h-FBS and PDGF. […] The ingrowth of SMC in the vascular media equivalent also promoted wound healing process of the construct scaffold by showing the closure of the puncture hole (FIG. 14).

| Compound | SMC in-growth and contraction ([1]; collagen-chitosan scaffolds cross-linked using genipin) | SMC contraction or invasion in the gels ([2]; genipin at a concentration of 5 mM or above) | SMC contraction and invasion in the CCE gels ([2]; genipin crosslinking) | PDGF-induced cell migration and contraction ([1]; low cross-linking condition, PDGF-BB with or without serum or heparin) | PDGF-induced SMC invasion into the crosslinked constructs [2] |
| --- | --- | --- | --- | --- | --- |
| COC(=O)C1=CO[C@@H](O)[C@@H]2C(CO)=CC[C@H]12 [genipin] | inhibited | No SMC contraction or invasion was observed | significantly inhibited |  |  |
| heparin |  |  |  | inhibited | inhibitory effects |
